Reference: PubChem BioAssay (NCI)
Several values for one entry are separate records, joined by “and”; a condition that tells them apart may be missing. Identical values can stand only once.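 Exposure lasted 48 hours, with cells grown in 96-well plates and compounds tested at five concentrations. Here, GI50 denotes the concentration required for 50% inhibition of growth. At the TGI there is no net growth.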

Tests used:
Test in all cases: DTP human tumour cell line panel, 48 h
SK-MEL-2 melanoma = tested on: SK-MEL-2 melanoma
SN12C renal = tested on: SN12C renal
CCRF-CEM leukemia = tested on: CCRF-CEM leukemia
786-0 renal = tested on: 786-0 renal
HCT-15 colon = tested on: HCT-15 colon
U251 CNS = tested on: U251 CNS
BT-549 breast = tested on: BT-549 breast
IGROV1 ovarian = tested on: IGROV1 ovarian

Compound	TGI (SK-MEL-2 melanoma)	TGI (SN12C renal)	TGI (CCRF-CEM leukemia)	TGI (786-0 renal)	TGI (HCT-15 colon)	TGI (U251 CNS)	TGI (BT-549 breast)	TGI (IGROV1 ovarian)	GI50 (SK-MEL-2 melanoma)	GI50 (BT-549 breast)	GI50 (SN12C renal)	GI50 (IGROV1 ovarian)	GI50 (CCRF-CEM leukemia)	GI50 (786-0 renal)	GI50 (HCT-15 colon)	GI50 (U251 CNS)
N=C(N)SCc1cn2ccccc2n1	> 100 µM	> 100 µM	> 100 µM	> 100 µM	> 100 µM	> 100 µM										
N#Cc1ccc(-c2nc(C#N)c(N)o2)cc1		> 10 µM	> 10 µM	> 10 µM	> 10 µM		> 10 µM	> 10 µM								
CON(C)C(=O)C(C)NC(=O)OCc1ccccc1 (stereo unspecified)		> 100 µM	> 100 µM	> 100 µM	> 100 µM	> 100 µM	> 100 µM	> 100 µM								
COc1ccc(Cl)cc1Nc1nc(C(F)(F)F)ccc1C(=O)NN	> 100 µM	> 100 µM	2.86 µM	> 25.8 µM	> 100 µM	> 100 µM	> 100 µM	> 85.1 µM	2.7 µM	2.13 µM	11.4 µM	7.83 µM	0.319 µM	2.42 µM	1.2 µM	2.43 µM
COc1ccc(C(C2=C(C)C(=O)c3ccccc3C2=O)c2ccc(C(C)C)cc(=O)c2O)cc1 (stereo unspecified)	22.3 µM	8.4 µM	> 100 µM	6.26 µM	32.2 µM	10.9 µM		12.6 µM								
CC[C@H](C)[C@H](NC(=O)c1cnccn1)C(=O)N(C)[C@H](C[C@@H](OC(C)=O)c1nc(C(=O)N[C@@H](Cc2ccccc2)C[C@H](C)C(=O)OC)cs1)C(C)C	> 33.3 µM	> 33.3 µM	> 33.3 µM	> 21.9 µM	> 33.3 µM	> 33.3 µM		> 33.3 µM	0.827 µM		2.22 µM	1.04 µM	1.15 µM	1.71 µM	1.06 µM	1.18 µM
NS(=O)(=O)c1ccc(N2Cc3cc(Cl)ccc3OC3=C2C(=O)N(CC2CCCCC2)C3=O)cc1	3.65 µM	2.57 µM		0.482 µM	1.45 µM	2.65 µM	1.97 µM	2.83 µM	1.86 µM	0.546 µM	1.01 µM	1.34 µM		0.207 µM	0.344 µM	1.3 µM
CC1=C(C(=O)NC2CCCCC2)CC(C(=O)NC2CCCCC2)=C(C)N1	> 100 µM	> 100 µM	> 100 µM	> 100 µM	> 100 µM	> 100 µM	> 100 µM	> 100 µM								
Nc1cc(N)c2nc(-c3ccccc3)c(Oc3ccc(F)cc3)nc2c1	> 100 µM	52.7 µM		36.3 µM	> 100 µM	78.6 µM	34.8 µM	> 100 µM	43 µM	15 µM	19.3 µM	28.5 µM		15.7 µM	36 µM	23.2 µM
CC12CC3(C)CC(C)(C1)CC(N=[N+]=[N-])(C2)C3	> 100 µM	> 100 µM	> 100 µM	> 100 µM		> 100 µM		> 100 µM								
COc1cc(Nc2ccnc(N3CCN(c4ccnc5cc(Cl)ccc45)CC3)n2)cc(OC)c1	4.02 µM	> 100 µM	> 100 µM	4.6 µM	> 100 µM	> 26.9 µM		> 26.1 µM	0.738 µM		1.28 µM	1.36 µM	1.38 µM	1.6 µM	0.109 µM	1.66 µM
COc1cc(/C=C2\CN(C)CC3=C2Nc2nc(SC)[nH]c(=O)c2C3c2cc(OC)c(OC)c(OC)c2)cc(OC)c1OC (stereo unspecified)	33.3 µM	15.5 µM		16.9 µM	4.79 µM	4.14 µM	8.12 µM	12.6 µM	9.92 µM	2.98 µM	2.98 µM	3.1 µM		4.01 µM	2.07 µM	1.76 µM
Cc1cccc(NC(=O)c2sc3nc4c(cc3c2N)CCCC4)c1C	> 100 µM	> 100 µM	> 100 µM	> 100 µM	> 100 µM	> 100 µM	> 100 µM	> 100 µM	0.515 µM	2.51 µM	0.61 µM	0.547 µM	0.375 µM	0.532 µM	0.363 µM	0.416 µM
O=c1nc(-c2ccccc2)c2c3c(cccn13)CCC2	> 100 µM	> 100 µM	> 100 µM	> 100 µM	> 100 µM	> 100 µM		> 100 µM								
S=C(N/N=C/c1cc(Cl)cc(Cl)c1)NC12CC3CC(CC(C3)C1)C2	> 30.3 µM	> 100 µM	> 100 µM	> 100 µM	> 100 µM	> 33.6 µM	> 100 µM	> 100 µM	7.74 µM	> 100 µM		8.8 µM	> 61.1 µM	8.63 µM	> 56.6 µM	3.18 µM
C/C(=N\O)c1ccc(Nc2cc(-n3nnc4ccccc43)nc3ccccc23)cc1	47.6 µM	14.2 µM	30.3 µM	13.3 µM	20.9 µM	25.3 µM	14.8 µM	42.5 µM	15.6 µM	3.77 µM	4.67 µM	12.9 µM	2.75 µM	4.89 µM	4.17 µM	6.68 µM
CC(O)CNC1=CC(=O)C(=O)c2ccccc21 (stereo unspecified)	32.9 µM	34.9 µM	> 100 µM	32.2 µM	33.6 µM	30.6 µM		33.8 µM								
O=C1[C@@H](c2ccc(Cl)cc2)[C@H]2CC=C[C@H]2N1O	> 100 µM	> 100 µM	> 100 µM	> 100 µM	> 100 µM			> 100 µM								
CS(=O)(=O)c1ccc(Cl)c([N+](=O)[O-])c1	41.7 µM	28.2 µM	52.2 µM	36.8 µM	23.3 µM	29 µM	32.8 µM	45.1 µM	23.2 µM	18.7 µM	13.8 µM	18 µM	19.2 µM	19.9 µM	5.91 µM	15.2 µM
CCOC(=O)c1c(NC(=O)c2ccc(C(C)C)cc2)sc2c(CN(C)C)c(O)ccc12	4.59 µM	17.9 µM	7.35 µM	3.36 µM	2.74 µM	7.13 µM	5.35 µM	8.69 µM	2.14 µM	2.18 µM	4.53 µM	2.89 µM	2.33 µM	1.79 µM	1.17 µM	2.59 µM

Compound	TGI (SK-MEL-2 melanoma)	TGI (SN12C renal)	TGI (CCRF-CEM leukemia)	TGI (786-0 renal)	TGI (HCT-15 colon)	TGI (U251 CNS)	TGI (BT-549 breast)	TGI (IGROV1 ovarian)	GI50 (SK-MEL-2 melanoma)	GI50 (BT-549 breast)	GI50 (SN12C renal)	GI50 (IGROV1 ovarian)	GI50 (CCRF-CEM leukemia)	GI50 (786-0 renal)	GI50 (HCT-15 colon)	GI50 (U251 CNS)
COc1ccc(C2SC(N)=Nc3c2c(C)nn3C(=O)c2ccc(Cl)cc2)cc1OC (stereo unspecified)	> 10 µM	> 10 µM	> 10 µM	> 10 µM	> 10 µM	> 10 µM	> 10 µM	> 10 µM								
CC(CO)[C@H]1OC(=O)C=C2[C@@]13O[C@@H]3[C@H]1OC(=O)[C@@]3(C)[C@H]4O[C@H]4C[C@@]2(C)[C@@H]13 (stereo partly specified)	11.1 µM	13.6 µM		> 28.1 µM	> 31 µM	> 100 µM	8.2 µM	12 µM								
CN1CCCN(CCNc2nccc(-c3c(-c4cccc(O)c4)nc4sccn34)n2)S1(=O)=O	7.29 µM and 6.74 µM	75 µM and > 100 µM	75 µM and 46.6 µM	72.4 µM and > 100 µM	75 µM and 98.4 µM	50.4 µM and > 51.1 µM	58.8 µM and > 78.4 µM	16.6 µM and 43.6 µM	2.37 µM and 2.15 µM	9.2 µM and 12.3 µM	8.55 µM and 6.23 µM	3.93 µM and 5.33 µM	8.29 µM and 4.7 µM	5.55 µM and 7.14 µM	7.12 µM and 5.51 µM	8.99 µM and 11.9 µM
CCN(CC)c1ccc(NC(=S)NN(C)C)cc1	> 10 µM	> 10 µM	> 10 µM	> 10 µM	> 10 µM	> 10 µM		> 10 µM								
CC(=O)c1cccc(N(/C=C/C(=O)C(F)(F)F)CC(=O)c2ccc(Cl)cc2)c1	> 100 µM	> 100 µM	> 100 µM	> 100 µM	> 100 µM	> 100 µM	> 100 µM	> 100 µM	> 100 µM	> 100 µM	> 100 µM	> 100 µM	> 100 µM	> 100 µM	> 100 µM	> 100 µM
Cc1ccc(C(=O)/C(=C/c2ccc([N+](=O)[O-])cc2)S(=O)Cc2ccccc2)cc1 (stereo unspecified)	3.26 µM	3.4 µM	> 100 µM	2.81 µM	2.59 µM	2.24 µM	3.49 µM	3.29 µM	1.57 µM	1.79 µM	1.71 µM	1.42 µM	0.396 µM	1.44 µM	1.07 µM	1.02 µM
Fc1cccc(COc2ccc(Nc3ncnc4sc(-c5ccco5)cc34)cc2Cl)c1	> 25 µM	> 25 µM	> 25 µM	> 25 µM	> 25 µM	> 25 µM	> 25 µM	> 25 µM	> 25 µM	> 25 µM	> 25 µM	> 25 µM	> 25 µM	> 25 µM	> 25 µM	> 25 µM
CC(C)n1c(/C=C/[C@@H](O)C[C@@H](O)CC(=O)O)c(-c2ccc(F)cc2)c2ccccc21	30.9 µM and 22.3 µM	> 100 µM	> 100 µM	> 100 µM	> 100 µM	> 100 µM	> 77.6 µM	> 100 µM	1.51 µM and 0.983 µM	5.8 µM and 4.63 µM	0.7 µM and 0.598 µM	2.99 µM and 2.68 µM	13.8 µM and 13.4 µM	4.71 µM and 5.31 µM	3.04 µM and 1.66 µM	0.455 µM and 0.558 µM
Cc1nc(SCC(N)=O)c2sc(=S)n(-c3ccccc3)c2n1	> 10 µM	> 10 µM	> 10 µM	> 10 µM	> 10 µM	> 10 µM		> 10 µM								
CCOc1ccc(NCC2CC/C(=C\C=C\c3ccccc3)C2=O)cc1 (stereo unspecified)	> 100 µM	35.4 µM	> 100 µM	13.5 µM	18.9 µM	35.5 µM	33 µM	17.5 µM								
CC[N+]1(C)CCC(O)(c2ccc(C)cc2)C(C(=O)c2ccc(C)cc2)C1 (stereo unspecified)	> 100 µM	> 100 µM	44.2 µM	34.6 µM	45.9 µM	> 100 µM	> 100 µM	> 100 µM								
O=c1oc2ccccc2c(O)c1C=NC(=S)c1ccncc1	> 100 µM	> 100 µM		> 100 µM	> 100 µM	> 100 µM	94 µM	> 100 µM								
COc1ccc(-n2nnc3c(sc4ccccc43)c2=O)cc1	> 100 µM			> 100 µM	> 100 µM		> 100 µM		> 100 µM	> 100 µM				3.61 µM	> 100 µM	
CC(C)c1ccc2nc3ccc(C(=O)NCCN(C)C)cn3c(=O)c2c1		35.9 µM	32.1 µM	27.8 µM	28.5 µM	39.9 µM	29.6 µM	> 100 µM								
Clc1ccccc1NN(Cc1ccccn1)c1ccccc1Cl	32.6 µM	33.3 µM		31.6 µM	> 100 µM	29.6 µM	56 µM	42.2 µM								
COc1cc2cc(Oc3ccc(NC(=O)c4cccc(C(F)(F)F)c4)cc3)c(C)nc2cc1OC	> 100 µM	> 100 µM		> 100 µM	> 100 µM	> 100 µM	> 100 µM	> 100 µM	5.11 µM	3.31 µM	6.39 µM	6.78 µM		5.31 µM	4.65 µM	4.44 µM
COc1ccc(OC)c(-c2cc(-c3ccccc3)nn2-c2ccc(S(=O)(=O)NC(C)=O)cc2)c1	> 100 µM	26.2 µM	6.55 µM	23.4 µM	10.2 µM		38.6 µM	> 100 µM	36.2 µM	16.2 µM	13.2 µM	27.4 µM	2.13 µM	10.8 µM	3.72 µM	
CC(C)(C)OC(=O)NCC(C#N)CNC(=O)OC(C)(C)C		> 100 µM	> 100 µM	> 100 µM	> 100 µM	> 100 µM	> 100 µM	> 100 µM								
Cc1cc2c(cc1C)NC1=C(N2)OC(c2c[nH]c3ccc(COc4ccccc4)cc23)C1=O (stereo unspecified)	> 100 µM	> 100 µM		> 100 µM	> 100 µM	> 100 µM	> 100 µM	> 100 µM								
